Test results from patent US20230167127A1, “COMPOUNDS AND THEIR USE IN THE TREATMENT OF BACTERIAL INFECTION” (Hoffmann-La Roche Inc., priority 2020, published 2023).
pIC50: −log10 of the molar value.

System: Escherichia coli ATCC 25922
Assay: 50% growth inhibitory concentration (IC50) determination, Iso-Sensitest broth dilution
Assay type: cell-based
Details: Escherichia coli, ATCC25922, 16 h, strain Escherichia coli ATCC 25922; 10-point broth dilution, optical density at 600 nm over 16 h; read-out: Escherichia coli growth inhibition IC50
Summary of the method: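 10-point twofold Iso-Sensitest broth dilution (e.g. 50 to 0.097 μM final) with DMSO stocks, incubated at 35±2° C. Growth followed by OD 600 nm every 20 min over 16 h; IC50 derived from growth inhibition during logarithmic phase.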

SMILES: N[C@@H]1c2cc(OCC3(N)CC3)cc(Cl)c2C[C@H]1CN1CCC2(CC1)CN(c1ccc3c(n1)NC(=O)CO3)C(=O)O2 (racemic) [Example 274, 6-[2-Oxo-8-[[rac-1,2-trans-1-amino-6-[(1-aminocyclopropyl)methoxy]-4-chloro-2,3-dihydro-1H-inden-2-yl]methyl]-1-oxa-3,8-diazaspiro[4.5]decan-3-yl]-4H-pyrido[3,2-b][1,4]oxazin-3-one; formic acid]
- pIC50: > 7.01

SMILES: Cc1ncc2c(c1F)CC(CNCC[C@@H]1CN(c3cnc4c(n3)NC(=O)CO4)C(=O)O1)C2 (stereo partly drawn) [Example 339, 6-[(5R)-5-[2-[(4-fluoro-3-methyl-6,7-dihydro-5H-cyclopenta[c]pyridin-6-yl)methylamino]ethyl]-2-oxo-1,3-oxazolidin-3-yl]-4H-pyrazino[2,3-b][1,4]oxazin-3-one]
- pIC50: 6.84

SMILES: N#Cc1cccc2c1CC(CNCCC1CN(c3ccc4c(n3)NC(=O)CO4)C(=O)O1)C2 (stereo not shown) [Example 5, 2-[[2-[2-oxo-3-(3-oxo-4H-pyrido[3,2-b][1,4]oxazin-6-yl)-1,3-oxazolidin-5-yl]ethylamino]methyl]-2,3-dihydro-1H-indene-4-carbonitrile]
- pIC50: > 7.01

SMILES: Cc1nc(C)c2c(c1C)CC(CNCCC1CN(c3ccc4c(n3)NC(=O)CO4)C(=O)O1)C2 (stereo not shown) [Example 93, 6-[2-oxo-5-[2-[(1,3,4-trimethyl-6,7-dihydro-5H-cyclopenta[c]pyridin-6-yl)methylamino]ethyl]-1,3-oxazolidin-3-yl]-4H-pyrido[3,2-b][1,4]oxazin-3-one]
- pIC50: > 7.01

SMILES: Cc1ncc(F)c2c1CC(NCC(O)CC1CN(c3cnc4c(n3)NC(=O)CO4)C(=O)O1)C2 (single isomer, unassigned; isomer a) [Example 313, 6-[2-Oxo-5-[3-[(4-fluoro-1-methyl-6,7-dihydro-5H-cyclopenta[c]pyridin-6-yl)amino]-2-hydroxypropyl]-1,3-oxazolidin-3-yl]-4H-pyrazino[2,3-b][1,4]oxazin-3-one; formic acid, Isomer A]
- pIC50: 5.72

SMILES: NC1(COc2cc(F)c3c(c2)CC(CNCCC2CN(c4ccc5c(n4)NC(=O)CO5)C(=O)O2)C3)CC1 (stereo not shown) [Example 160, 6-[5-[2-[[6-[(1-aminocyclopropyl)methoxy]-4-fluoro-2,3-dihydro-1H-inden-2-yl]methylamino]ethyl]-2-oxo-1,3-oxazolidin-3-yl]-4H-pyrido[3,2-b][1,4]oxazin-3-one]
- pIC50: > 7.01

SMILES: CCn1cc(C(=O)O)c(=O)c2cc(F)c3c(c21)CC(CNCCC1CN(c2ccc4c(n2)NC(=O)CO4)C(=O)O1)C3 (stereo not shown) [Example 239, 1-Ethyl-6-fluoro-4-oxo-8-[[2-[2-oxo-3-(3-oxo-4H-pyrido[3,2-b][1,4]oxazin-6-yl)-1,3-oxazolidin-5-yl]ethylamino]methyl]-8,9-dihydro-7H-cyclopenta[h]quinoline-3-carboxylic acid]
- pIC50: > 7.01

SMILES: O=C1COc2ccc(N3CC(CCNCC4(O)Cc5cccc(Cl)c5C4)OC3=O)nc2N1 (stereo not shown) [Example 232, 6-[5-[2-[(4-Chloro-2-hydroxy-1,3-dihydroinden-2-yl)methylamino]ethyl]-2-oxo-1,3-oxazolidin-3-yl]-4H-pyrido[3,2-b][1,4]oxazin-3-one; formic acid]
- pIC50: 6.31

SMILES: NC1c2cccc(Cl)c2CC1CCN1CC2(C1)CN(c1ccc3c(n1)NC(=O)CO3)C(=O)O2 (racemic) [Example 195, 6-[6-oxo-2-[2-[rac-1,2-trans-1-amino-4-chloro-2,3-dihydro-1H-inden-2-yl]ethyl]-5-oxa-2,7-diazaspiro[3.4]octan-7-yl]-4H-pyrido[3,2-b][1,4]oxazin-3-one; 2,2,2-trifluoroacetic acid]
- pIC50: > 7.01

SMILES: O=C1COc2ncc(N3CC(CCNCC4Cc5cc(OCCN6CCOC6=O)cc(F)c5C4)OC3=O)nc2N1 (stereo not shown) [Example 304, 6-[5-[2-[[4-fluoro-6-[2-(2-oxo-1,3-oxazolidin-3-yl)ethoxy]-2,3-dihydro-1H-inden-2-yl]methylamino]ethyl]-2-oxo-1,3-oxazolidin-3-yl]-4H-pyrazino[2,3-b][1,4]oxazin-3-one; formic acid]
- pIC50: 6.35

SMILES: CNC(=O)COc1cc(Cl)c2c(c1)C(N)C(CNCCC1CN(c3cnc4c(n3)NC(=O)CO4)C(=O)O1)C2 (racemic) [Example 399, 2-[[rac-2,3-trans-3-Amino-7-chloro-2-[[2-[2-oxo-3-(3-oxo-4H-pyrazino[2,3-b][1,4]oxazin-6-yl)-1,3-oxazolidin-5-yl]ethylamino]methyl]-2,3-dihydro-1H-inden-5-yl]oxy]-N-methylacetamide; formic acid]
- pIC50: 5.95

SMILES: Cc1ncc(F)c2c1C[C@@H](CNCC[C@@H]1CN(c3cnc4c(n3)NC(=O)CO4)C(=O)O1)C2 [Example 427, 6-[(5R)-5-[2-[[(6R)-4-Fluoro-1-methyl-6,7-dihydro-5H-cyclopenta[c]pyridin-6-yl]methylamino]ethyl]-2-oxo-1,3-oxazolidin-3-yl]-4H-pyrazino[2,3-b][1,4]oxazin-3-one]
- pIC50: > 7.01

SMILES: NC1c2c(Cl)cccc2CC1CNCCC1CN(c2ccc3c(n2)NC(=O)CO3)C(=O)O1 (racemic) [Example 168, 6-[2-oxo-5-[2-[[rac-1,2-trans-1-amino-7-chloro-2,3-dihydro-1H-inden-2-yl]methylamino]ethyl]-1,3-oxazolidin-3-yl]-4H-pyrido[3,2-b][1,4]oxazin-3-one; formic acid]
- pIC50: > 7.01

SMILES: O=C1COc2ccc(N3CC(CCNCCC4Cc5cccc(Cl)c5C4)OC3=O)nc2N1 (stereo not shown) [Example 20, 6-[5-[2-[2-(4-chloro-2,3-dihydro-1H-inden-2-yl)ethylamino]ethyl]-2-oxo-1,3-oxazolidin-3-yl]-4H-pyrido[3,2-b][1,4]oxazin-3-one; formic acid]
- pIC50: 6.86

SMILES: CNC(=O)COc1ncc2c(c1C)CC(CNCCC1CN(c3ccc4c(n3)NC(=O)CO4)C(=O)O1)C2 (stereo not shown) [Example 223, N-methyl-2-((4-methyl-6-(((2-(2-oxo-3-(3-oxo-3,4-dihydro-2H-pyrido[3,2-b][1,4]oxazin-6-yl)oxazolidin-5-yl)ethyl)amino)methyl)-6,7-dihydro-5H-cyclopenta[c]pyridin-3-yl)oxy)acetamide]
- pIC50: 6.41

SMILES: Cc1ncc(F)c2c1CC(CNCCC1CN(c3cnc4c(n3)NC(=O)CO4)C(=O)O1)C2 (stereo not shown) [Example 51, 6-[5-[2-[(4-fluoro-1-methyl-6,7-dihydro-5H-cyclopenta[c]pyridin-6-yl)methylamino]ethyl]-2-oxo-1,3-oxazolidin-3-yl]-4H-pyrazino[2,3-b][1,4]oxazin-3-one]
- pIC50: > 7.01

SMILES: N#Cc1cccc2c1CC(CN[C@H]1CC[C@H](C3CN(c4ccc5c(n4)NC(=O)CO5)C(=O)O3)CC1)C2 (stereo partly drawn) [Example 100, 2-[[[trans-4-[2-oxo-3-(3-oxo-4H-pyrido[3,2-b][1,4]oxazin-6-yl)-1,3-oxazolidin-5-yl]cyclohexyl]amino]methyl]-2,3-dihydro-1H-indene-4-carbonitrile; formic acid]
- pIC50: 5.90

SMILES: O=C1COc2ccc(N3C[C@@H](NC4CC(NC5Cc6cccc(F)c6C5)C4)CC3=O)nc2N1 (stereo partly drawn) [Example 24, 6-[(4S)-4-[[3-[(4-fluoro-2,3-dihydro-1H-inden-2-yl)amino]cyclobutyl]amino]-2-oxopyrrolidin-1-yl]-4H-pyrido[3,2-b][1,4]oxazin-3-one]
- pIC50: 5.74

SMILES: CC(N)COc1cc2c(c(Cl)n1)CC(CNCCC1CN(c3cnc4c(n3)NC(=O)CO4)C(=O)O1)C2 (stereo not shown) [Example 145, 6-[5-[2-[[3-(2-aminopropoxy)-1-chloro-6,7-dihydro-5H-cyclopenta[c]pyridin-6-yl]methylamino]ethyl]-2-oxo-oxazolidin-3-yl]-4H-pyrazino[2,3-b][1,4]oxazin-3-one; formic acid]
- pIC50: 6.72

SMILES: N#Cc1cccc2c1CC(CNCCC1CN(c3cnc4c(c3)NC(=O)CO4)C(=O)O1)C2 (stereo not shown) [Example 46, 2-[[2-[2-oxo-3-(2-oxo-1H-pyrido[2,3-b][1,4]oxazin-7-yl)-1,3-oxazolidin-5-yl]ethylamino]methyl]-2,3-dihydro-1H-indene-4-carbonitrile]
- pIC50: 6.45

SMILES: NCCOc1cc2c(c(Cl)n1)CC(CNCCC1CN(c3ccc4c(n3)NC(=O)CO4)C(=O)O1)C2 (stereo not shown) [Example 126, 6-[5-[2-[[3-(2-aminoethoxy)-1-chloro-6,7-dihydro-5H-cyclopenta[c]pyridin-6-yl]methylamino]ethyl]-2-oxo-1,3-oxazolidin-3-yl]-4H-pyrido[3,2-b][1,4]oxazin-3-one]
- pIC50: 6.59

SMILES: CC1(CCNCC2Cc3c(Cl)cccc3C2N)CN(c2cnc3c(n2)NC(=O)CO3)C(=O)O1 (racemic) [Example 375, 6-[5-methyl-2-oxo-5-[2-[(rac-1,2-trans-1-amino-4-chloro-2,3-dihydro-1H-inden-2-yl)methylamino]ethyl]-1,3-oxazolidin-3-yl]-4H-pyrazino[2,3-b][1,4]oxazin-3-one]
- pIC50: 6.45

SMILES: N#Cc1cccc2c1CC(CN[C@H]1C[C@H](C3CN(c4ccc5c(n4)NC(=O)CO5)C(=O)O3)C1)C2 (stereo partly drawn) [Example 97, 2-[[[trans-3-[2-oxo-3-(3-oxo-4H-pyrido[3,2-b][1,4]oxazin-6-yl)-1,3-oxazolidin-5-yl]cyclobutyl]amino]methyl]-2,3-dihydro-1H-indene-4-carbonitrile]
- pIC50: 6.73

SMILES: N#Cc1nccc2c1CC(CNCCC1CN(c3ccc4c(n3)NC(=O)CO4)C(=O)O1)C2N (racemic) [Example 133, rac-5,6-trans-5-amino-6-[[2-[2-oxo-3-(3-oxo-4H-pyrido[3,2-b][1,4]oxazin-6-yl)-1,3-oxazolidin-5-yl]ethylamino]methyl]-6,7-dihydro-5H-cyclopenta[c]pyridine-1-carbonitrile; formic acid]
- pIC50: 5.86

SMILES: Cc1ccnc2c1CC(NCCCC1CN(c3ccc4c(n3)NC(=O)CO4)C(=O)O1)C2 (stereo not shown) [Example 27, 6-[5-[3-[(4-methyl-6,7-dihydro-5H-cyclopenta[b]pyridin-6-yl)amino]propyl]-2-oxo-1,3-oxazolidin-3-yl]-4H-pyrido[3,2-b][1,4]oxazin-3-one]
- pIC50: 6.24
